Here are results for eight molecules from patent US7666642B2, “Nematode fatty acid desaturase-like sequences” (Divergence, Inc., priority 2001, dated 2010).

Data set [1] deals with everted hamster jejunal and ileal segments. The settings on record: cited from earlier work.
In data set [2] the test system is isolated intestinal epithelial cells. The settings on record: cited from earlier work.
The subject of data set [3] is Δ9 fatty acid desaturases. The settings on record: cited from earlier work.
Data set [4] has as its system plants. The settings on record: in vivo.
Data set [5] has as its system C. elegans. As to the kind of experiment: Rescue of C. elegans Δ12 FAT RNAi feeding phenotype by fatty acid methyl esters. Type of data set: in vivo. The settings on record: 3 mM added to the NGM media. The source says:
RNAi by feeding: C. elegans can be grown on lawns of E. coli genetically engineered to produce double stranded RNA (dsRNA) designed to inhibit Δ12 FAT expression. Briefly, E. coli were transformed with a genomic fragment of a portion of the C. elegans Δ12 FAT gene sequence, specifically a fragment 651 nucleotides long, containing the entire first exon and terminating just before the conserved intron splice junction between the first exon and first intron. This construct encodes approximately the first 217 amino acids of the C. clegans Δ12 FAT gene. The 651 nucleotide genomic fragment was cloned into an E. coli expression vector between opposing T7 polymerase promoters. The clone was then transformed into a strain of E. coli that carries an IPTG-inducible T7 polymerase. As a control, E. coli was transformed with a gene encoding the Green Fluorescent Protein (GFP).
Feeding RNAi was initiated from C. elegans eggs or from C. elegans L4s.
The C. elegans Δ12 fatty acid desaturase (Fat2 protein) converts the mono-unsaturated oleic acid to the di-unsaturated fatty acid linoleic acid. The […] FAT RNAi prevents expression of the Δ12 fatty acid desaturase, which is predicted to cause a decrease in levels of linoleic acid in the nematode, leading to arrested development and death.

For data set [6], the system named is C. elegans. Nature of the data set: Inhibitor studies: C. elegans cultures on NGM plates containing fatty acid methyl esters. The data set is classed as in vivo. Conditions: for Lifecycle impairments of C. elegans cultures: methyl ester on NGM plates with OP50 E. coli. The source says:
Vernolic acid and ricinoleic acid are naturally occurring plant-produced fatty acid homologs that we predict to be specific inhibitors of Δ12 FAT enzymes. The addition of these compounds to living cultures of C. elegans is expected to mimic the effects of the Δ12 FAT RNAi experiments since, in each case, the phenotype observed should derive from the inhibition of the nematode Δ12 FAT. To explore this possibility, C. elegans cultures were started from eggs on NGM plates containing their E. coli food source and one of either 3 mM ricinolcic acid methyl ester or 3 mM vernolic acid methyl ester. Total eggs layed and hatch-rates of F1 and F2 individuals were followed and compared to nematode cultures grown in the presence of control fatty acids oleic acid methyl ester and linoleic acid methyl ester. C. elegans L4 larvae were added to NGM plates containing OP50 E. coli and one of the following methyl esters: oleic acid, linolcic acid, ricinoleic acid, vernolic acid or none. C. elegans L4 larvae growing on plates containing ricinoleic acid (FIG. 11) or vernolic acid (FIG. 12) methyl esters developed to mature adults more slowly than those on control plates containing oleic acid (FIG. 9) or linoleic acid (FIG. 10) and produced very few embryos (eggs).

For data set [7], the system named is plants. As to the kind of experiment: Toxicity to plants (phytotoxicity). The settings on record: at least some plants.
The mark [8] stands for this setting: 3 mM methyl ester on NGM plates with OP50 E. coli.

Each structure is given as a SMILES string. Like-named read-outs stand apart in the source and are kept apart here.

Take `CCCCCC[C@@H](O)C/C=C\CCCCCCCC(=O)O` [Ricinoleic acid, reference compound]: in data set [1], the “Effect on water and electrolyte absorption” value was “inhibitory effect”. For the same molecule, the Cytotoxicity result in data set [2] was “cytotoxic”.

Regarding `CCCCCCCCC1=C(CCCCCCCC(=O)O)C1` [Sterculic acid], in data set [3], the “Inhibition of Δ9 fatty acid desaturases” value is on record as “potent inhibitor”.

Take `CCCCCC#CC/C=C\CCCCCCCC(=O)OC` [crepenynic acid methyl ester]: the Toxicity to plants result with plants [4] is “do not appear to be toxic (or are very much less toxic)”.

With `CCCCC/C=C\C/C=C\CCCCCCCC(=O)OC` [linoleic acid methyl ester, reference compound], the “Rescue of the Δ12 FAT RNAi feeding phenotype” value in the data set on C. elegans [5] was “partial rescue”. The “Lifecycle impairments of C. elegans cultures” value in the data set with C. elegans [6] is “no dramatic lifecycle impairments”.

Consider `CCCCCCCCC1=C(CCCCCCC(=O)O)C1` [malvalate], for which the “Inhibition of Δ9 fatty acid desaturases” value in data set [3] is on record as “equally inhibitory”.

On to `CCCCCCCC/C=C\CCCCCCCC(=O)OC` [oleic acid methyl ester, reference compound], for which, in the data set on C. elegans [5], the “Rescue of the Δ12 FAT RNAi feeding phenotype” value is reported as “does not rescue”. Moreover, the “Lifecycle impairments of C. elegans cultures” value in the data set with C. elegans [6] was “no dramatic lifecycle impairments”.

`CCCCCC[C@@H](O)C/C=C/CCCCCCCC(=O)OC` [ricinelaidic acid methyl ester]: the Toxicity to plants result with plants [7] is reported as “do not appear to be toxic (or are very much less toxic)”.

For the molecule `CCCCCC[C@@H](O)C/C=C\CCCCCCCC(=O)OC` [ricinoleic acid methyl ester], in the data set on C. elegans [6] (setting [8]), the “Embryos (eggs) produced” value is listed as “very few”; the “Phenotype of young larvae from embryos that hatched” value was “severe arrested phenotypes and did not develop to adults”. Besides, the “Development of L4 larvae to mature adults” value in the data set on C. elegans [6] (3 mM methyl ester on NGM plates with OP50 E. coli, compared with oleic or linoleic acid control plates) is given as “more slowly”. For the same molecule, in the data set with C. elegans [6] (methyl esters of fatty acid analogs), the Nematicidal activity entry is reported as “nematicidal”. For the same molecule, the “Effect on water and electrolyte absorption” value in data set [1] is recorded as “ineffective”. Also, the Toxicity to plants entry in the data set with plants [7] is on record as “do not appear to be toxic (or are very much less toxic)”.
